Test results taken from patent US20210246140A1, “MODULATORS OF METABOTROPIC GLUTAMATE RECEPTOR 2” (The General Hospital Corporation, priority 2020, published 2021).

Experiments:
[1] = tested on: other mGlu receptors (mGluR1, mGluR3, mGluR4, mGluR5, mGluR6, mGluR8); assay: Selectivity among mGluR subtypes (Ca2+ mobilization assay and cAMP assay); type: cell-based; settings: mGluR1 and mGluR5 by Ca2+ mobilization; mGluR3, 4, 6, 8 by cAMP assay
Description: The Gq coupled receptors (mGluR1 and mGluR5) were tested using Ca^2+ mobilization assay. mGluR1 stable cell lines were plated into poly-L-lysine (PLL) coated 384-well black clear bottom cell culture plates with complete Basal Medium Eagle (BME) buffer, which was composed of 10% dialyzed FBS, penicillin G (100 units/mL), streptomycin (100 μg/mL) with tetracycline (1 μg/mL) at density of 20,000 cells in 40 μl per well for overnight. On the other hand, HEK-293 Cells transiently transfected using the calcium phosphate method with cDNA encoding mGluR5 for 40 h were plated into the plate with complete BME at density of 20,000 cells in 40 μL per well for 8 h. mGluR1 stable cells or cells transiently expressing mGluR5 were incubated with 20 μL of the calcium dye (FLIPR Calcium 4 Assay Kit; Molecular Devices) diluted in the assay buffer (1×FIBSS, 2.5 mM probenecid, and 20 mM HEPES, pH 7.4) for 45 min at 37° C. and 15 min at room temperature. To measure agonist activity of receptors, the drug plates were prepared with different concentrations of test or reference compound at 3 times the desired final concentration. […] Once loaded in FLIPR (Molecular Devices), basal fluorescence was measured for 10 s, then 10 μL of test or reference compounds were added, followed by continued fluorescence measurement for an additional 120 s. […]

[2] = Microsomal stability in rat liver microsomes; type: in vitro ADME
Description: Compound stability in rat liver microsomal was tested using a published method. [see refs. 57, 58] In a vial 1.5 μL of test compound (1 mM in DMSO stock solution) was mixed with 432 μL of PBS (50 mM, pH 7.4). The mixture was kept at 37° C. for 10 min before adding 13 μL of Sprague-Dawley rat liver microsomes (Sigma-Aldrich, No. M9066). The vial was vortexed and shaken at 37° C. for 5 min, followed by addition of 50 μL of NADPH (10 mM in PBS stock solution) to start the reaction. The mixture was incubated at 37° C. for 0, 5, 15, 30, 45 min, respectively, and quenched by addition of 250 μL of ice-cold acetonitrile and 3 μL of the internal standard (0.5 mM in DMSO). The quenched solutions were centrifuged at 10,000 g for 15 min. The supernatant was collected and quantitated by RP-HPLC (Phenomenex Luna® column 5 μC18, 100 Å, 250×4.6 mm; 0.7 mL/min, 15 min, Acetonitrile/water/0.1% FA). The procedure was repeated three times for each compound. Compound 1-OH was used as internal standard and compound ML128 served as positive control. The percentage of remaining intact test-compound was calculated by (peak area at the specific time point)/(peak area at 0 min)×100%. Each procedure was repeated three times (FIGS. 8 and 9). For FIG. 8, the natural logarithm (In) of peak area ratio (test compound peak area/internal standard peak area) was plotted against time and the gradient of the line was determined. Subsequently, the half-life (t1/2) min was calculated as 0.693/k, where the elimination rate constant (k) equals to negative gradient. V (μL/mg) was obtained as a ratio of volume of incubation (μL)/protein in the incubation (mg). Finally, the intrinsic clearance (CLint) (μL/min/mg protein) was calculated as V×0.693/t1/2.
The in vitro plasma and liver microsomal stability of 1 and 2 were studied by incubating the test compounds in rat serum and rat liver microsomes as well as NADPH cofactor, respectively, using previously published methods [see refs. 57, 58]. […] The solution stability of 1 was evaluated with buffer solutions at pH 5.0, 7.4 and 9.4, respectively (FIGS. 10 and 20) [see refs. 61].

[3] = PAMPA-BBB (parallel artificial membrane permeation assay); settings: pH 7.4, 18 h
[4] = Plasma protein binding assay (equilibrium dialysis, RED device); type: in vitro ADME; settings: rat plasma
Description: Disposable RED device inserts (product 90006) were from Thermos Scientific (Waltham, Mass.). Each insert was made of two side-by-side chambers separated by a vertical cylinder of dialysis membrane (MWCO 8,000) validated for minimal non-specific binding. A stock solution of the test compound in DMSO was spiked into the rat plasma to reach a concentration of 10 μM. 400 μL of sample solution was placed into the sample chamber of the RED device, and 600 μL of phosphate-buffered saline (PBS) was added to the buffer chamber of the RED device. Samples were prepared in triplicates. The plate was covered with aluminum sealing cover and incubated at 37° C. on an orbital shaker at approximately 200 rpm for 5 h. After incubation, 300 μL of post-dialysis samples from the buffer and sample chambers were transferred to different microcentrifuge tubes. To the buffer sample was added 300 μL of plasma, and an equal volume of buffer was added to the collected plasma sample. 600 μL of cold acetonitrile was added to the samples, and the samples were vortexed and incubated for 30 min on ice and then were centrifuged at 14000 rpm for 10 min. Supernatant was transferred to vial for HPLC analysis (XTerra™ MS C18 5μ, 2.1×250 mm column; Gradient elution from 5% to 90% B in 30 min; 0.1 M ammonium formate in water (A) and acetonitrile (B); UV 254 nm; 100 μL of injection volume). The percentage of the test bound compound was calculated as % Free=(Concentration in buffer chamber/Concentration in plasma chamber)×100%; % Bound=100%−% Free (FIG. 6).
The experimental lipophilicity was measured by using liquid-liquid partition between n-octanol and water (“shake-flask method”) [see ref. 54]. […] The plasma protein binding comprises compounds' binding to albumin, α1-acid glycoprotein and lipoproteins once delivered to the bloodstream. This property was evaluated for compounds 1 and 2 by equilibrium dialysis [see ref. 56], where two chambers were separated by a dialysis membrane (MWCO 8 kD). The plasma protein bindings of 1 and 2 are 87.2% and 88.7%, respectively (see FIGS. 20 and 6). Therefore, the high plasma free fraction of compounds 1 and 2 (>10%) would allow enough free drug concentration in blood stream to reach the brain targets.

COc1cc(C(F)(F)F)ccc1C1CCN(Cc2nc3ncccc3n2C)CC1 [Compound 1]
selectivity against other mGlu receptor subtypes [1]: > 100 fold
microsomal CLint at 3 µM ([2]; Sprague-Dawley, pH 7.4, rat liver microsomes, read-out: intrinsic clearance CLint): 17.9 µL/min/mg
microsomal stability ([2]; rat liver microsomes with NADPH, ML128 as positive control): reasonable microsomal stability
effective permeability Pe [3]: 92 nm/s
plasma protein binding ([4]; equilibrium dialysis, 10 μM): 87.2%
fraction unbound at 5 h, 10 μM ([4]; read-out: plasma free fraction): > 0.1
